In US9346815B2, “5-chloro-2-difluoromethoxyphenyl pyrazolopyrimidine compounds, compositions and methods of use thereof” (Genentech, Inc., priority 2014, dated 2016):

Assays:
[1] = target: isolated recombinant JAK1 kinase domain (Homo sapiens (Human), UniProt P23458); assay: JAK1 enzyme assay (Caliper LabChip, peptide phosphorylation); format: biochemical; conditions: isolated recombinant JAK1 kinase domain, 25 μM ATP
[2] = target: isolated recombinant JAK2 kinase domain (Homo sapiens (Human), UniProt O60674); assay: JAK2 enzyme assay (Caliper LabChip, peptide phosphorylation); format: biochemical; conditions: 25 μM ATP
Sequence of isolated recombinant JAK2 kinase domain (O60674 849-1124): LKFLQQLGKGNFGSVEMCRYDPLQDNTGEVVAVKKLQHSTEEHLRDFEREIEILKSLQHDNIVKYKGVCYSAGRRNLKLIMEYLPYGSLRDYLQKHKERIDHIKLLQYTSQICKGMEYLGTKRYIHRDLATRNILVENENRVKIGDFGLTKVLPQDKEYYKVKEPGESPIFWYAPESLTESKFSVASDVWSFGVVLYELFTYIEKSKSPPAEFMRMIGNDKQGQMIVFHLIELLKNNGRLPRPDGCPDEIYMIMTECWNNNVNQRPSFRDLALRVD

[3] = tested on: JAK1-dependent STAT6 phosphorylation downstream of IL-13 stimulation in TF-1 human erythroleukemia cells; assay: JAK1 pathway assay in TF-1 cells (IL-13-pSTAT6, MSD); format: cell-based; conditions: Homo sapiens, TF-1, TF-1 cells, read-out: IL13-pSTAT6 EC50_TF-1
Summary of the method: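 TF-1 cells are starved of GM-CSF overnight and run in serum-free medium, while BEAS-2B cells stay in complete growth medium. Inhibition of STAT6 phosphorylation is measured by MSD.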

Sequence of isolated recombinant JAK1 kinase domain (P23458 875-1153): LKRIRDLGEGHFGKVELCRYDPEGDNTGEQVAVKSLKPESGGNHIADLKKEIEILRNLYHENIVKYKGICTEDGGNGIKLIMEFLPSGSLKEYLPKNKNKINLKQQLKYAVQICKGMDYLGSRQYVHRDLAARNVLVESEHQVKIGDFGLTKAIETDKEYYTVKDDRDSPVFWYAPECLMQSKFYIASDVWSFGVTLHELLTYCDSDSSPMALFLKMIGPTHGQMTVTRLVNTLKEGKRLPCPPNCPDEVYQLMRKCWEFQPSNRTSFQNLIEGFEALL

Compound	Ki [1]	Ki [2]	EC50 [3]
CN(CCc1ccc(C(F)(F)F)cc1)C1CCN(C(=O)Cn2cc(NC(=O)c3cnn4cccnc34)c(-c3cc(Cl)ccc3OC(F)F)n2)CC1 [Example 97, N-[3-[5-chloro-2-(difluoromethoxy)phenyl]-1-[2-[4-[methyl-[2-[4-(trifluoromethyl)phenyl]ethyl]amino]-1-piperidyl]-2-oxo-ethyl]pyrazol-4-yl]pyrazolo[1,5-a]pyrimidine-3-carboxamide]	1.16 nM	1.97 nM	187 nM
O=C(Nc1cn(CC(=O)N2CCC(N(CCc3ccccc3)CC(F)(F)F)CC2)nc1-c1cc(Cl)ccc1OC(F)F)c1cnn2cccnc12 [Example 103, N-[3-[5-chloro-2-(difluoromethoxy)phenyl]-1-[2-oxo-2-[4-[2-phenylethyl(2,2,2-trifluoroethyl)amino]-1-piperidyl]ethyl]pyrazol-4-yl]pyrazolo[1,5-a]pyrimidine-3-carboxamide]	3.98 nM	7.95 nM	265 nM
CN(CCOc1ccccc1Br)C1CCN(C(=O)Cn2cc(NC(=O)c3cnn4cccnc34)c(-c3cc(Cl)ccc3OC(F)F)n2)CC1 [Example 105, N-[1-[2-[4-[2-(2-bromophenoxy)ethyl-methyl-amino]-1-piperidyl]-2-oxo-ethyl]-3-[5-chloro-2-(difluoromethoxy)phenyl]pyrazol-4-yl]pyrazolo[1,5-a]pyrimidine-3-carboxamide]	1.45 nM	3.17 nM	50 nM
CN(CCOc1ccccc1Cl)C1CCN(C(=O)Cn2cc(NC(=O)c3cnn4cccnc34)c(-c3cc(Cl)ccc3OC(F)F)n2)CC1 [Example 106, N-[3-[5-chloro-2-(difluoromethoxy)phenyl]-1-[2-[4-[2-(2-chlorophenoxy)ethyl-methyl-amino]-1-piperidyl]-2-oxo-ethyl]pyrazol-4-yl]pyrazolo[1,5-a]pyrimidine-3-carboxamide]	1.09 nM	2.29 nM	15.5 nM
CN(CCOc1ccc(Cl)cc1)C1CCN(C(=O)Cn2cc(NC(=O)c3cnn4cccnc34)c(-c3cc(Cl)ccc3OC(F)F)n2)CC1 [Example 107, N-[3-[5-chloro-2-(difluoromethoxy)phenyl]-1-[2-[4-[2-(4-chlorophenoxy)ethyl-methyl-amino]-1-piperidyl]-2-oxo-ethyl]pyrazol-4-yl]pyrazolo[1,5-a]pyrimidine-3-carboxamide]	0.97 nM	2.49 nM	17.6 nM
CCCCN(CCOc1ccc(C)cc1)C1CCN(C(=O)Cn2cc(NC(=O)c3cnn4cccnc34)c(-c3cc(Cl)ccc3OC(F)F)n2)CC1 [Example 108, N-[1-[2-[4-[butyl-[2-(4-methylphenoxy)ethyl]amino]-1-piperidyl]-2-oxo-ethyl]-3-[5-chloro-2-(difluoromethoxy)phenyl]pyrazol-4-yl]pyrazolo[1,5-a]pyrimidine-3-carboxamide]	2.47 nM	3.66 nM	43.1 nM
C=CCN(CCOc1ccc(C)cc1)C1CCN(C(=O)Cn2cc(NC(=O)c3cnn4cccnc34)c(-c3cc(Cl)ccc3OC(F)F)n2)CC1 [Example 109, N-[1-[2-[4-[allyl-[2-(4-methylphenoxy)ethyl]amino]-1-piperidyl]-2-oxo-ethyl]-3-[5-chloro-2-(difluoromethoxy)phenyl]pyrazol-4-yl]pyrazolo[1,5-a]pyrimidine-3-carboxamide]	3.22 nM	7.3 nM	42.9 nM
O=C(Nc1cn(CC(=O)N2CCC(CN3CCC(F)(F)CC3)(c3ccccc3)CC2)nc1-c1cc(Cl)ccc1OC(F)F)c1cnn2cccnc12 [Example 111, N-[3-[5-chloro-2-(difluoromethoxy)phenyl]-1-[2-[4-[(4,4-difluoro-1-piperidyl)methyl]-4-phenyl-1-piperidyl]-2-oxo-ethyl]pyrazol-4-yl]pyrazolo[1,5-a]pyrimidine-3-carboxamide]	3.1 nM	10.6 nM	203 nM
CN(Cc1cccc(Oc2ccccc2)c1)C1CCN(C(=O)Cn2cc(NC(=O)c3cnn4cccnc34)c(-c3cc(Cl)ccc3OC(F)F)n2)CC1 [Example 113, N-[3-[5-chloro-2-(difluoromethoxy)phenyl]-1-[2-[4-[methyl-[(3-phenoxyphenyl)methyl]amino]-1-piperidyl]-2-oxo-ethyl]pyrazol-4-yl]pyrazolo[1,5-a]pyrimidine-3-carboxamide]	1.19 nM	2.15 nM	30.6 nM
CCCCN(CC(F)(F)F)C1CCN(C(=O)Cn2cc(NC(=O)c3cnn4cccnc34)c(-c3cc(Cl)ccc3OC(F)F)n2)CC1 [Example 115, N-[1-[2-[4-[butyl(2,2,2-trifluoroethyl)amino]-1-piperidyl]-2-oxo-ethyl]-3-[5-chloro-2-(difluoromethoxy)phenyl]pyrazol-4-yl]pyrazolo[1,5-a]pyrimidine-3-carboxamide]	1.28 nM	2.48 nM	57.7 nM

The next lines start with the values.

Ki [1]	Ki [2]	EC50 [3]	Compound
0.95 nM	1.31 nM	23.3 nM	CN(CCc1ccc(O)cc1)C1CCN(C(=O)Cn2cc(NC(=O)c3cnn4cccnc34)c(-c3cc(Cl)ccc3OC(F)F)n2)CC1 [Example 90, N-[3-[5-chloro-2-(difluoromethoxy)phenyl]-1-[2-[4-[2-(4-hydroxyphenyl)ethyl-methyl-amino]-1-piperidyl]-2-oxo-ethyl]pyrazol-4-yl]pyrazolo[1,5-a]pyrimidine-3-carboxamide]
0.75 nM	1.15 nM	149 nM	O=C(Nc1cn(CC(=O)N2CCC(NCCc3ccc(O)cc3)CC2)nc1-c1cc(Cl)ccc1OC(F)F)c1cnn2cccnc12 [Example 91, N-[3-[5-chloro-2-(difluoromethoxy)phenyl]-1-[2-[4-[2-(4-hydroxyphenyl)ethyl-amino]-1-piperidyl]-2-oxo-ethyl]pyrazol-4-yl]pyrazolo[1,5-a]pyrimidine-3-carboxamide]
0.92 nM	2.03 nM	55.6 nM	O=C(Nc1cn(CC(=O)N2CCC(NCCc3ccc(Cl)cc3)CC2)nc1-c1cc(Cl)ccc1OC(F)F)c1cnn2cccnc12 [Example 92, N-[3-[5-chloro-2-(difluoromethoxy)phenyl]-1-[2-[4-[2-(4-chlorophenyl)ethylamino]-1-piperidyl]-2-oxo-ethyl]pyrazol-4-yl]pyrazolo[1,5-a]pyrimidine-3-carboxamide]
0.8 nM	2.6 nM	17.3 nM	COc1ccc(CCN(C)C2CCN(C(=O)Cn3cc(NC(=O)c4cnn5cccnc45)c(-c4cc(Cl)ccc4OC(F)F)n3)CC2)cc1 [Example 95, N-[3-[5-chloro-2-(difluoromethoxy)phenyl]-1-[2-[4-[2-(4-methoxyphenyl)ethyl-methyl-amino]-1-piperidyl]-2-oxo-ethyl]pyrazol-4-yl]pyrazolo[1,5-a]pyrimidine-3-carboxamide]
0.63 nM	1.4 nM	4.1 nM	CN(CC1(C)COC1)C1CCN(C(=O)Cn2cc(NC(=O)c3cnn4cccnc34)c(-c3cc(Cl)ccc3OC(F)F)n2)CC1 [Example 96, N-[3-[5-chloro-2-(difluoromethoxy)phenyl]-1-[2-[4-[methyl-[(3-methyloxetan-3-yl)methyl]amino]-1-piperidyl]-2-oxo-ethyl]pyrazol-4-yl]pyrazolo[1,5-a]pyrimidine-3-carboxamide]
0.84 nM	2.01 nM	5.4 nM	CN(CCOc1ccccc1)C1CCN(C(=O)Cn2cc(NC(=O)c3cnn4cccnc34)c(-c3cc(Cl)ccc3OC(F)F)n2)CC1 [Example 100, N-[3-[5-chloro-2-(difluoromethoxy)phenyl]-1-[2-[4-[methyl(2-phenoxyethyl)amino]-1-piperidyl]-2-oxo-ethyl]pyrazol-4-yl]pyrazolo[1,5-a]pyrimidine-3-carboxamide]
0.67 nM	1.77 nM	16.5 nM	CN(CCC1CCCCC1)C1CCN(C(=O)Cn2cc(NC(=O)c3cnn4cccnc34)c(-c3cc(Cl)ccc3OC(F)F)n2)CC1 [Example 101, N-[3-[5-chloro-2-(difluoromethoxy)phenyl]-1-[2-[4-[2-cyclohexyl-ethyl(methyl)amino]-1-piperidyl]-2-oxo-ethyl]pyrazol-4-yl]pyrazolo[1,5-a]pyrimidine-3-carboxamide]
0.93 nM	2.11 nM	20.2 nM	CN(CCOc1ccc(Br)cc1)C1CCN(C(=O)Cn2cc(NC(=O)c3cnn4cccnc34)c(-c3cc(Cl)ccc3OC(F)F)n2)CC1 [Example 104, N-[1-[2-[4-[2-(4-bromophenoxy)ethyl-methyl-amino]-1-piperidyl]-2-oxo-ethyl]-3-[5-chloro-2-(difluoromethoxy)phenyl]pyrazol-4-yl]pyrazolo[1,5-a]pyrimidine-3-carboxamide]
0.45 nM	1.01 nM	96.3 nM	CN(CC1Oc2ccccc2O1)C1CCN(C(=O)Cn2cc(NC(=O)c3cnn4cccnc34)c(-c3cc(Cl)ccc3OC(F)F)n2)CC1 [Example 112, N-[1-[2-[4-[1,3-benzodioxol-2-ylmethyl(methyl)amino]-1-piperidyl]-2-oxo-ethyl]-3-[5-chloro-2-(difluoromethoxy)phenyl]pyrazol-4-yl]pyrazolo[1,5-a]pyrimidine-3-carboxamide]
0.52 nM	1.34 nM	15.3 nM	CN(CC1(C#N)CCCCC1)C1CCN(C(=O)Cn2cc(NC(=O)c3cnn4cccnc34)c(-c3cc(Cl)ccc3OC(F)F)n2)CC1 [Example 114, N-[3-[5-chloro-2-(difluoromethoxy)phenyl]-1-[2-[4-[(1-cyanocyclohexyl)methyl-methyl-amino]-1-piperidyl]-2-oxo-ethyl]pyrazol-4-yl]pyrazolo[1,5-a]pyrimidine-3-carboxamide]
